# Experimental data published in patent US20150218534A1, “MODIFIED DNA POLYMERASE” (TOYOBO CO., LTD., priority 2012, published 2015).
# Test system: 482 bp of human β-globin
# Assay: PCR amplification of 482 bp of human β-globin with dUTP in place of dTTP
# Format: biochemical
# Set-up: key to Results of PCR in the presence of dUTP 481 bp: A: Amplified; B: Amplified (faint band); C: Not amplified
# Conditions: for Results of PCR in the presence of dUTP 481 bp: dTTP replaced by dUTP, 35 cycles; for PCR amplification of 482 bp with dUTP: 100% dUTP instead of dTTP (FIGS. 5 to 8)
# Method: 482 bp of human β-globin was amplified to compare the amplification difference between the case of using dTTP and the case of using dUTP in PCR, and the sensitivity to dUTP was examined. For amplification, each enzyme was used after being mixed with 1 μg of a KOD antibody per U of the enzyme. For PCR, components included in KOD-Plus-Ver. 2 (produced by Toyobo Co. Ltd.) were used. General dNTPs (dATP, dTTP, dCTP, dGTP) in an amount of 0.2 mM were added to 50 μl of individual reaction solutions, and dNTPs (dATP, dUTP, dCTP, dGTP) in an amount of 0.2 mM in which dTTP was replaced by dUTP were added to 50 μl of individual reaction solutions. The reaction solutions contained 1× PCR buffer, 1.5 mM MgSO4, primers represented by SEQ ID NOs: 27 and 28 in an amount of 15 pmol for amplifying […], 10 ng of human genomic DNA (produced by Roche), and 1 U of each respective enzyme mixed with the antibody. PCR was performed using a GeneAmp PCR system 9700 (produced by Applied Biosystems) on the following schedule: preliminary reaction at 94° C. for 2 minutes, followed by 35 cycles, each cycle consisting of 98° C. for 10 seconds and 68° C. for 1 minute. After the completion of each individual reaction, each of the resulting reaction solutions was analyzed using to a DNA-1000 kit for MultiNA (produced by Shimadzu Corporation) to confirm amplified DNA fragments. FIGS. 5 and 6 show the results.
Molecule,Results of PCR in the presence of dUTP 481 bp,PCR amplification of 482 bp with dUTP
KOD D141A/E143A/Y7A/P36R: KOD D141A/E143A (exo(−)) mutant with Y7A and P36R,A,–
KOD N210D/P36R: KOD N210D (exo(−)) mutant with P36R,A,–
KOD N210D/Y7A/V93K: KOD N210D (exo(−)) mutant with Y7A and V93K,A,–
KOD H147E/P36R/V93K: KOD H147E (exo(+)) mutant with P36R and V93K,C,–
KOD Y7A/P36R: modified KOD DNA polymerase with Y7A and P36R,A,allowed for PCR amplification
KOD N210D/Y7A: KOD N210D (exo(−)) mutant with Y7A,C,–
KOD N210D/V93Q: KOD N210D (exo(−)) mutant with V93Q,A,–
KOD N210D/P115Δ: KOD N210D (exo(−)) mutant lacking P115,C,–
KOD H147E/Y7A/P115Δ: KOD H147E (exo(+)) mutant with Y7A and lacking P115,C,–
KOD N210D/Y7A/P36R: KOD N210D (exo(−)) mutant with Y7A and P36R,A,–
KOD I142R/P36R: KOD I142R (exo(−)) mutant with P36R,A,–
KOD H147E/V93R: KOD H147E (exo(+)) mutant with V93R,A,–
KOD H147E/Y7A/P36H: KOD H147E (exo(+)) mutant with Y7A and P36H,A,–
KOD N210D/Y7A/P115Δ: KOD N210D (exo(−)) mutant with Y7A and lacking P115,C,–
KOD I142R/P36H: KOD I142R (exo(−)) mutant with P36H,A,–
KOD H147E/P36H: KOD H147E (exo(+)) mutant with P36H,A,–
KOD I142R/Y7A: KOD I142R (exo(−)) mutant with Y7A,C,–
KOD H147E/Y7A/P36R: KOD H147E (exo(+)) mutant with Y7A and P36R,A,–
KOD H147E/Y7A: KOD H147E (exo(+)) mutant with Y7A,C,–
KOD D141A/E143A/V93K: KOD D141A/E143A (exo(−)) mutant with V93K,A,–
KOD H147E/P115Δ: KOD H147E (exo(+)) mutant lacking P115,C,–

Molecule,Results of PCR in the presence of dUTP 481 bp,PCR amplification of 482 bp with dUTP
KOD I142R/Y7A/P36H: KOD I142R (exo(−)) mutant with Y7A and P36H,A,–
KOD I142R/Y7A/P36R: KOD I142R (exo(−)) mutant with Y7A and P36R,A,–
KOD H147E/V93Q: KOD H147E (exo(+)) mutant with V93Q,A,–
KOD P36R/V93K: modified KOD DNA polymerase with P36R and V93K,C,–
KOD H147E/P36R: KOD H147E (exo(+)) mutant with P36R,A,–
KOD N210D/P36H: KOD N210D (exo(−)) mutant with P36H,A,–
KOD I142R/Y7A/V93K: KOD I142R (exo(−)) mutant with Y7A and V93K,A,–
KOD I142R/V93K: KOD I142R (exo(−)) mutant with V93K,A,–
KOD Y7A/P115Δ: modified KOD DNA polymerase with Y7A and lacking P115,C,–
KOD D141A/E143A/P36R: KOD D141A/E143A (exo(−)) mutant with P36R,A,–
KOD N210D/V93K: KOD N210D (exo(−)) mutant with V93K,A,–
KOD H147E/P36H/V93K: KOD H147E (exo(+)) mutant with P36H and V93K,A,–
KOD H147E/Y7A/V93K: KOD H147E (exo(+)) mutant with Y7A and V93K,A,–
KOD D141A/E143A/P36H: KOD D141A/E143A (exo(−)) mutant with P36H,A,–
KOD D141A/E143A/Y7A: KOD D141A/E143A (exo(−)) mutant with Y7A,C,–
KOD D141A/E143A/Y7A/V93K: KOD D141A/E143A (exo(−)) mutant with Y7A and V93K,A,–
KOD H147E/V93K: KOD H147E (exo(+)) mutant with V93K,A,–
KOD D141A/E143A/Y7A/P36H: KOD D141A/E143A (exo(−)) mutant with Y7A and P36H,A,–
KOD P115Δ: modified KOD DNA polymerase lacking P115,C,–
KOD N210D/V93R: KOD N210D (exo(−)) mutant with V93R,A,–
"KOD Y7A: modified DNA polymerase derived from Thermococcus kodakaraensis KOD1 with Y7A (protein, listed as Thermococcus kodakaraensis) MILDTDAITEDGKPVIRIFKKENGEFKIEYDRTFEPYFYALLKDDSAIEEVKKITAERHGTVVTVKRVEKVQKKFLGRPVEVWKLYFTHPQDVPAIRDKIREHPAVIDIYEYDIPFAKRYLIDKGLVPMEGDEELKMLAFDIETLYHEGEEFAEGPILMISYADEEGARVITWKNVDLPYVDVVSTEREMIKRFLRVVKEKDPDVLITYNGDNFDFAYLKKRCEKLGINFALGRDGSEPKIQRMGDRFAVEVKGRIHFDLYPVIRRTINLPTYTLEAVYEAVFGQPKEKVYAEEITTAWETGENLERVARYSMEDAKVTYELGKEFLPMEAQLSRLIGQSLWDVSRSSTGNLVEWFLLRKAYERNELAPNKPDEKELARRRQSYEGGYVKEPERGLWENIVYLDFRSLYPSIIITHNVSPDTLNREGCKEYDVAPQVGHRFCKDFPGFIPSLLGDLLEERQKIKKKMKATIDPIERKLLDYRQRAIKILANSYYGYYGYARARWYCKECAESVTAWGREYITMTIKEIEEKYGFKVIYSDTDGFFATIPGADAETVKKKAMEFLKYINAKLPGALELEYEGFYKRGFFVTKKKYAVIDEEGKITTRGLEIVRRDWSEIAKETQARVLEALLKDGDVEKAVRIVKEVTEKLSKYEVPPEKLVIHEQITRDLKDYKATGPHVAVAKRLAARGVKIRPGTVISYIVLKGSGRIGDRAIPFDEFDPTKHKYDAEYYIENQVLPAVERILRAFGYRKEDLRYQKTRQVGLSAWLKPKGT",C,not PCR-amplified
